From paper doi:10.1101/2025.04.09.647920v1, “TIR immune signaling is blocked by phosphorylation to maintain growth in plants and animals” (biorxiv, 2025)

Target: T1, RBA1 (Arabidopsis thaliana, UniProt F4HT77)
T1 construct: TIR-only protein, recombinant from insect cells
T1 sequence (F4HT77 1-363): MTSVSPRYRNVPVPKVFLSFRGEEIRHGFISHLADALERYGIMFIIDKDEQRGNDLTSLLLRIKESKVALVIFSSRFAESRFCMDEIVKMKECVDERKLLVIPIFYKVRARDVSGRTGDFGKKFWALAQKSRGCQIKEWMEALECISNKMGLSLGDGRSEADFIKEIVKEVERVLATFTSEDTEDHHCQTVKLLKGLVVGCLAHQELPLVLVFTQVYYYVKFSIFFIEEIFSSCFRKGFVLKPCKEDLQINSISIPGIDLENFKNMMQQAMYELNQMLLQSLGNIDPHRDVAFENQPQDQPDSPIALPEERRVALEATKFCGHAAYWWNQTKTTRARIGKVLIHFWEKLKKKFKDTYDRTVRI
Assay: LC-MS/MS NADase assay
Assay type: biochemical
Conditions: in vitro

NC(=O)c1ccc[n+]([C@@H]2O[C@H](COP(=O)(O)OP(=O)(O)OC[C@H]3O[C@@H](n4cnc5c(N)ncnc54)[C@H](O)[C@@H]3O)[C@@H](O)[C@H]2O)c1 [NAD^+]
LC-MS/MS NADase assay: Recombinant RBA1 protein purified from insect cells cleaved NAD^+ into nicotinamide (Nam)
